The source made the active and inactive calls.
Experiments:
Cytochrome P450 1A2 = target: T1, Cytochrome P450 1A2 (Homo sapiens, UniProt P05177);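 also: PubChem cytochrome P450 panel assay, CYP1A2 panel member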
T1 sequence (P05177 whole entry): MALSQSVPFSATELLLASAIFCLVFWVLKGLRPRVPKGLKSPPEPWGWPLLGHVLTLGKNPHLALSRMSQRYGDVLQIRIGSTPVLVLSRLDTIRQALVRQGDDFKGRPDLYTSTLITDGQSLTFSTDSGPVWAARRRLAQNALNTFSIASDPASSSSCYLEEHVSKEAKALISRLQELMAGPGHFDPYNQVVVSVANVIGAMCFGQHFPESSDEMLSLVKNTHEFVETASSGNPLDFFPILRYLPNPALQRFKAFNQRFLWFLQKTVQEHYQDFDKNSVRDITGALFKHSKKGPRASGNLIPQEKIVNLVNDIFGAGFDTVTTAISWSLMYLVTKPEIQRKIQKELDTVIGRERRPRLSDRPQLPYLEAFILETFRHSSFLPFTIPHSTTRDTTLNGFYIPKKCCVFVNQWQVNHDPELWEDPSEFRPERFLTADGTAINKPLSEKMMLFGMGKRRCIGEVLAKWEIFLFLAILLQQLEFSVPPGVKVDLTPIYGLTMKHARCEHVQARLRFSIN

Cytochrome P450 3A4 = Cytochrome P450 3A4 (Homo sapiens, UniProt P08684);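 also: CYP3A4 tested as one member of a cytochrome P450 panel screen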
[1] = target: Adenosylmethionine-8-amino-7-oxononanoate aminotransferase (Mycobacterium tuberculosis, UniProt P9WQ81); assay: Mycobacterium tuberculosis BioA enzyme inhibitor Measured in Biochemical System Using Plate Reader - 2163-02_Inhibitor_Dose_CherryPick_Activity.; type: functional, Mycobacterium tuberculosis UT205
Cytochrome P450 2D6 = Cytochrome P450 2D6 (Homo sapiens, UniProt P10635);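 also: CYP2D6 member of a cytochrome P450 panel assay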
HEK293 = assay: inhibitors of LMP1-driven NF-kB reporter, dose response, cell-based, HEK293, luciferase, cherry-pick (AID 588343); type: functional; settings: Homo sapiens
Fatty acid synthase [2] = target: T2, Fatty acid synthase (Homo sapiens, UniProt P49327); assay: FAS thioesterase domain inhibitors, dose response, biochemical, kinetic fluorescence intensity (AID 624326); type: functional;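 also: rate of fluorescence rise from hydrolysis of a fluorogenic O-methyl fluorescein ester substrate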
[3] = control 3'UTR Renilla luciferase suppression, dose response, counter-screen for Shn3 inhibitor project, cell-based, Clone20-Shn3RL, cherry-picked (AID 624133); type: functional
[4] = target: 5-hydroxytryptamine receptor 2A (Mus musculus, UniProt P35363); type: functional, cell-based;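 also: CHO-K1 cells with tagged receptor and beta-arrestin; agonist potency measured as compound-induced activation of the receptor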
[5] = Shn3 3'UTR reporter inhibitors, dose response, cell-based, Clone20 osteoblasts, firefly luciferase, cherry-picked (AID 624132); type: functional;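 also: firefly luciferase luminescence from reporter carrying the Shn3 3'UTR in osteoblasts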
Interleukin-8 [6] = target: T3, Interleukin-8 (Homo sapiens, UniProt P10145); assay: Dose Response confirmation of uHTS small molecule hits for cystic fibrosis induced NFkb Inhibitors in a TNFa-induced IL8 counterscreen.; type: functional; settings: read-out: IC50_Mean
T3 sequence (P10145 whole entry): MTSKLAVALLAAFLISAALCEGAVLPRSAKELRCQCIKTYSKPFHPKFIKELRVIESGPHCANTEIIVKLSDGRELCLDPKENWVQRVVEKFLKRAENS

Fatty acid synthase [7] = target: T2, Fatty acid synthase; assay: FAS thioesterase domain inhibitors, dose response, biochemical, endpoint fluorescence intensity, uHTS hits (AID 624327); type: functional;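 also: fluorescence from hydrolysis of an O-methyl fluorescein acyl ester substrate by the enzyme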
[8] = HepG2 cell cytotoxicity, dose response, cytotoxicity control for Shn3 inhibitor project, CellTiter-Glo, cherry-picked (AID 624134); type: functional, cell-based
Mu-type opioid receptor = Mu-type opioid receptor (Homo sapiens, UniProt P35372); type: functional, cell-based;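 also: U2OS cells with beta-arrestin recruitment to OPRM1 by beta-gal complementation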
Interleukin-8 [9] = target: T3, Interleukin-8; assay: Dose Response confirmation of uHTS small molecule hits for cystic fibrosis induced NFkb Inhibitors in a PAF-induced IL8 counterscreen.; type: functional; settings: read-out: IC50_Mean
[10] = target: Benomyl/methotrexate resistance protein (Candida albicans, UniProt P28873); assay: CaMdr1 efflux pump inhibitor potency, dose response, singleplex, Cherry Pick1 hits (AID 588608); type: functional
Melanocortin receptor 4 = Melanocortin receptor 4 (Homo sapiens, UniProt P32245); assay: MC4R antagonist potency on cAMP, dose response, cell-based, TR-FRET, biased antagonists (AID 602298); type: functional;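 also: antagonist potency against agonist-stimulated cAMP production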
[11] = nonselective inhibitors of cellular cAMP signaling, dose response, counter-screen for MC4R biased antagonist project, cell-based, TR-FRET cAMP detection (AID 602305); type: functional;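 also: U2OS cells stimulated with forskolin near its EC80 as the cAMP inducer; potency is for inhibition of forskolin-stimulated cAMP signaling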
[12] = target: Mitochondrial peptide methionine sulfoxide reductase (Bos taurus, UniProt P54149); type: functional;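 also: absorbance read-out, biochemical high-throughput dose-response screen for MsrA inhibitors, confirmatory; recombinant bovine MsrA coupled to E. coli TrxB with NADPH and selenocystamine; potency is for inhibitors of MsrA activity on DMSO substrate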
Mitochondrial peptide methionine sulfoxide reductase, sequence (P54149 whole entry): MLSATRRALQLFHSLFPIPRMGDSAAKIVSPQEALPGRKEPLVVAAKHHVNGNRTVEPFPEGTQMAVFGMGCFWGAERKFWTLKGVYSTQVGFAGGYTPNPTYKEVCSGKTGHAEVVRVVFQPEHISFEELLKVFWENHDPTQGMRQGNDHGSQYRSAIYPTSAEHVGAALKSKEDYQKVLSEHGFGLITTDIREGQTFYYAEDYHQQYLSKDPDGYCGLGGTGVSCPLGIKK

T2 sequence (P49327 whole entry, the tested form may be a part): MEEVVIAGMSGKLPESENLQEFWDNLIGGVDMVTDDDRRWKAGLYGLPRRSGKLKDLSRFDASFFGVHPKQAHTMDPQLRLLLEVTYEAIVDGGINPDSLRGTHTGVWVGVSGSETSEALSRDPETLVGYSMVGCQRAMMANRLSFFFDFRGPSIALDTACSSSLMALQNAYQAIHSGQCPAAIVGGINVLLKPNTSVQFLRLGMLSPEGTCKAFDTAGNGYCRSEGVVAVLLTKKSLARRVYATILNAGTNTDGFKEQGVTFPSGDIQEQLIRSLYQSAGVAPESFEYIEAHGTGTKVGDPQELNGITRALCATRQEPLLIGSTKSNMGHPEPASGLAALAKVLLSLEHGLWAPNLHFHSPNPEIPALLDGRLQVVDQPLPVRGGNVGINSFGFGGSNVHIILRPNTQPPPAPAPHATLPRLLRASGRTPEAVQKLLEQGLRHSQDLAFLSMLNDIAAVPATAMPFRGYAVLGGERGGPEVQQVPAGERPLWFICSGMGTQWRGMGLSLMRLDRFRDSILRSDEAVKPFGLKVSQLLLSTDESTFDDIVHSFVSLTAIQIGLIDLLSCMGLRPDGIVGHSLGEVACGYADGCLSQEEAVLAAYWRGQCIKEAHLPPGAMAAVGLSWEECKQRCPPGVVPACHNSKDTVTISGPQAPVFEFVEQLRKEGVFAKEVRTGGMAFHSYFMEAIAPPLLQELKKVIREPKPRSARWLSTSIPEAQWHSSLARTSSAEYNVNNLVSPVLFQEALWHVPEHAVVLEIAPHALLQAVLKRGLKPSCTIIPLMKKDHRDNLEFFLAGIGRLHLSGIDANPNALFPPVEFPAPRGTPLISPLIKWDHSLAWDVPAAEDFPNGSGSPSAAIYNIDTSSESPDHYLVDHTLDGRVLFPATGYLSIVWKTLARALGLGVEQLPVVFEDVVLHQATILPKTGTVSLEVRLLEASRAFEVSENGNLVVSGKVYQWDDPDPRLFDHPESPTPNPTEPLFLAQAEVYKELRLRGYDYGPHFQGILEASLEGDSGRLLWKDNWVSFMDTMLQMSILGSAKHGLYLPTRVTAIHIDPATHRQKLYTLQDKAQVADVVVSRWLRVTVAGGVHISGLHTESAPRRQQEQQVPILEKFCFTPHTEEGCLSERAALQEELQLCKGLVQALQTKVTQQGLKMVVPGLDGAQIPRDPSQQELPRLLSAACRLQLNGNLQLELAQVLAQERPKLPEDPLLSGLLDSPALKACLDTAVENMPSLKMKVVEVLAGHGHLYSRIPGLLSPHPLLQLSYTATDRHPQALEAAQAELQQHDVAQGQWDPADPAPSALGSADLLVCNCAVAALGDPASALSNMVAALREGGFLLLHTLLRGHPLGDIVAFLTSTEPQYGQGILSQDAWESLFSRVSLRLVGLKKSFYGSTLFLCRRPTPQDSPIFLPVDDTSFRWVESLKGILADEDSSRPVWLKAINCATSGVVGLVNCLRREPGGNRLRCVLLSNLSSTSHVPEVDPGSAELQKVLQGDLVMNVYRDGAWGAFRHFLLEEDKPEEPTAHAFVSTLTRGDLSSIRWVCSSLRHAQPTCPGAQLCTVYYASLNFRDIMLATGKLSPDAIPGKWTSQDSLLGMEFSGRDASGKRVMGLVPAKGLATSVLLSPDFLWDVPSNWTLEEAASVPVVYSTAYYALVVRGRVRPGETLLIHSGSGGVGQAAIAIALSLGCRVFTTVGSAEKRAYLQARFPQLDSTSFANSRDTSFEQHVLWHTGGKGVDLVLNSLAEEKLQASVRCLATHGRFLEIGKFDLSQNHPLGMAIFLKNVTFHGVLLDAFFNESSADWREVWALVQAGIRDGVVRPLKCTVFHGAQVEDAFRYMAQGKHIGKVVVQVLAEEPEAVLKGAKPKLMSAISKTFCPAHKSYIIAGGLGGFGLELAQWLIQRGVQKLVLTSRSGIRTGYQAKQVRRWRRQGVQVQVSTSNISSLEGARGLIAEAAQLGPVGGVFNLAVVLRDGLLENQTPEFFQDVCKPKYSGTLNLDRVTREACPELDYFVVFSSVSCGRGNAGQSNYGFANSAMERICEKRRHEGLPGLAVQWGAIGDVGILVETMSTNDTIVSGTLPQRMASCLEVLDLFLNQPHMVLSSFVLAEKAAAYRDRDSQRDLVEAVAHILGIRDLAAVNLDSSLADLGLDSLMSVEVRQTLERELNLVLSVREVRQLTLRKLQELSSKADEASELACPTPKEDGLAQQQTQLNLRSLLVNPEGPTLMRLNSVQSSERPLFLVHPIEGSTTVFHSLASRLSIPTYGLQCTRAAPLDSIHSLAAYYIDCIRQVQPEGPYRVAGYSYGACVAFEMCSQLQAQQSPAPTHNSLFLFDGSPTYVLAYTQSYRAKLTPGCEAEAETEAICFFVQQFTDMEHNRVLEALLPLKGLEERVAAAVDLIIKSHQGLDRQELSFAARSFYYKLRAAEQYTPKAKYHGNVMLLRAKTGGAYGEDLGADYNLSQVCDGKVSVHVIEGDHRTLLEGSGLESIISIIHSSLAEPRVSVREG
Mu-type opioid receptor, sequence (P35372 whole entry): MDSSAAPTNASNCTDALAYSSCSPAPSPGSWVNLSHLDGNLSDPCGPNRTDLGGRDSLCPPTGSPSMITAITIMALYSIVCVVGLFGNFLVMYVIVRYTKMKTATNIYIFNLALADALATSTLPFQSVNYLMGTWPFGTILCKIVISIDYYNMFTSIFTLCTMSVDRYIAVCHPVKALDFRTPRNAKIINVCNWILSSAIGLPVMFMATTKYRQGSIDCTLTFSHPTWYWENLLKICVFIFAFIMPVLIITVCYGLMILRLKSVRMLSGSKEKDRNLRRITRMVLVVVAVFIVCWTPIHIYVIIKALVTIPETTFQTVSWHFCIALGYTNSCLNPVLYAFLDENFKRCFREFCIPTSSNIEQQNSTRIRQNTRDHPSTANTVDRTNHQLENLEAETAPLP
Adenosylmethionine-8-amino-7-oxononanoate aminotransferase, sequence (P9WQ81 whole entry): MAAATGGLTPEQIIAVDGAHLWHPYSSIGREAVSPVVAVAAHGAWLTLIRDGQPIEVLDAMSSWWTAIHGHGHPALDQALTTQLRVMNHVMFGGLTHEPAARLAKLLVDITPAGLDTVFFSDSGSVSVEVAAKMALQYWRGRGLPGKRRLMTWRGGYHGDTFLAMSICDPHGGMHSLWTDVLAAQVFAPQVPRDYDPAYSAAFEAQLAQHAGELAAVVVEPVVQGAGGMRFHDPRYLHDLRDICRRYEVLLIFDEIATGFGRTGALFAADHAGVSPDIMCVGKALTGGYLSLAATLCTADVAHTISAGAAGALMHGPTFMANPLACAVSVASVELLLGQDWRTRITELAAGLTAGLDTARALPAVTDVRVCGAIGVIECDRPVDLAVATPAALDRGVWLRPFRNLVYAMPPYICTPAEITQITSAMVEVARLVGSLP
Melanocortin receptor 4, sequence (P32245 whole entry): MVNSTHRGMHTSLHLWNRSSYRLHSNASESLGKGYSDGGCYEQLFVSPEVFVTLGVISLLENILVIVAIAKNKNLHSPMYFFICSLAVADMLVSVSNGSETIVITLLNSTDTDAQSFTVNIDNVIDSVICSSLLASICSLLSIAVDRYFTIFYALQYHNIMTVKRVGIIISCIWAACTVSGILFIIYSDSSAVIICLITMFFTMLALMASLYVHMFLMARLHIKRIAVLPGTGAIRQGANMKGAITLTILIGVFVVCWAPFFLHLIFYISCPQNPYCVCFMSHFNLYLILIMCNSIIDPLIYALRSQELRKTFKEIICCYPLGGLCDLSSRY
Benomyl/methotrexate resistance protein, sequence (P28873 whole entry): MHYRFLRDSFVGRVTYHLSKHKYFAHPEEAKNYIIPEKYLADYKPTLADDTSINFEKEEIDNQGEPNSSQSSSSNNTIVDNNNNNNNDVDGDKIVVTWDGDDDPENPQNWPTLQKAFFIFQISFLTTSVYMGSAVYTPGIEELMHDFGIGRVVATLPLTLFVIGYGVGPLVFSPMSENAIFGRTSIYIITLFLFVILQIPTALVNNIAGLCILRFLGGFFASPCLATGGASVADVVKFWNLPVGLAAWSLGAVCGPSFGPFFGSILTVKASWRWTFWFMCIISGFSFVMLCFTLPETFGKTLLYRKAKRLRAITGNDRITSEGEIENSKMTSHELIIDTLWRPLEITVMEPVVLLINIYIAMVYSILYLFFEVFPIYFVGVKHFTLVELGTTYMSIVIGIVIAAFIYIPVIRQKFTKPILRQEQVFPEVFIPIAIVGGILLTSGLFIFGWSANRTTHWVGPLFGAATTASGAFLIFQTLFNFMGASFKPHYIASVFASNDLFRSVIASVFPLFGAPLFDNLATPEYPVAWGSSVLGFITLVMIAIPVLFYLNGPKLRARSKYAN
5-hydroxytryptamine receptor 2A, sequence (P35363 whole entry): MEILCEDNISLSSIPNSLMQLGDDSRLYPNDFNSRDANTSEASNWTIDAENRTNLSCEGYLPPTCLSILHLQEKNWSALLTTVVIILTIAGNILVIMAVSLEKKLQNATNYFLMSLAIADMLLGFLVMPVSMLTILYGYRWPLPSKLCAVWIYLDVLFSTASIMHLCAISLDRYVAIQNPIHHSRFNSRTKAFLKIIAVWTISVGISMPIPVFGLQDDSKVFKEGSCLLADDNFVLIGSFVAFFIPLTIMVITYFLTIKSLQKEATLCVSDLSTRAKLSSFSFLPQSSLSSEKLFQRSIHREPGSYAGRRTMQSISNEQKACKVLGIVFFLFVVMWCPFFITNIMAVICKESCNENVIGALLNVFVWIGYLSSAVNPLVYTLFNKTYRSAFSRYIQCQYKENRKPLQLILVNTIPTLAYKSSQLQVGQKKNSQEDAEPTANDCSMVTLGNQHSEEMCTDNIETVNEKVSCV

Cc1ccc(Cc2c(C)nc3nc(SCC(=O)NCc4ccco4)nn3c2C)cc1
AC50 (Cytochrome P450 1A2): 0.00631 µM (inconclusive)
AC50 (Cytochrome P450 3A4): 3.16 µM (inconclusive)
AC50 [1]: 4.86 µM (active)
AC50 (Cytochrome P450 2D6): 25.1 µM (inconclusive)

O=[N+]([O-])c1ccc2ncnc(N3CCN(Cc4ccc5c(c4)OCO5)CC3)c2c1
AC50 (HEK293): 5.4 µM (active)
IC50 (Fatty acid synthase [2]): 0.843 µM (active)
AC50 [3]: 26.5 µM (active)
EC50 [4]: 3.78 µM (active)
AC50 [5]: 2.73 µM (active)
IC50 (Interleukin-8 [6]): 40.4 µM (inactive)
IC50 (Fatty acid synthase [7]): 1.39 µM (active)
AC50 [8]: 35.6 µM (active)
EC50 (Mu-type opioid receptor): 92.5 µM (inactive)
IC50 (Interleukin-8 [9]): 47.9 µM (inactive)

COc1cccc(C2CC(c3ccccc3)=NN2S(=O)(=O)c2ccc(C)cc2)c1OC (stereo not drawn)
EC50 [10]: 9.58 µM (active)

Cc1[nH]c(C)c(C(=O)/C=C/c2ccc([N+](=O)[O-])cc2)c1C
IC50 (Melanocortin receptor 4): > 64.6 µM (inactive)
IC50 [11]: > 64.6 µM (inactive)

CCCCCOC(=O)C(C)c1c(C)nc(S)nc1O (stereo not drawn)
IC50 [12]: 115 µM (inactive)
